The subject of the assay is P388 leukemia ip, CD2F1 mice, survival T/C. The assay is described as follows: NCI In Vivo Anticancer Drug Screen. Data for tumor model P388 Leukemia (intraperitoneal) in CD2F1 (CDF1) mice. The settings on record: endpoint: median survival time, higher = longer survival. In outline: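 Mice carrying the transplanted tumor received test compound or vehicle. Survival was recorded in each group, and the value is the treated-group measurement divided by that of the vehicle-treated control group.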

Where [1] appears, read: dose: 6.25 mg/kg/injection, schedule: Q01DX009 (ip), vehicle: saline.
Setting [2] is: dose: 12.5 mg/kg/injection, schedule: Q01DX009 (ip), vehicle: saline.
The mark [3] stands for this setting: dose: 25.0 mg/kg/injection, schedule: Q01DX009 (ip), vehicle: saline.
[4] abbreviates: dose: 50.0 mg/kg/injection, schedule: Q01DX009 (ip), vehicle: saline.
Where [5] appears, read: dose: 25.0 mg/kg/injection, schedule: Q01DX009 (ip), vehicle: Klucel (hydroxypropylcellulose) (HPC).
[6] abbreviates: dose: 50.0 mg/kg/injection, schedule: Q01DX009 (ip), vehicle: Klucel (hydroxypropylcellulose) (HPC).
Where [7] appears, read: dose: 100.0 mg/kg/injection, schedule: Q01DX009 (ip), vehicle: saline.
Setting [8] is: dose: 200.0 mg/kg/injection, schedule: Q01DX009 (ip), vehicle: saline.
Where [9] appears, read: dose: 100.0 mg/kg/injection, schedule: Q01DX009 (ip), vehicle: Klucel (hydroxypropylcellulose) (HPC).
[10] abbreviates: dose: 200.0 mg/kg/injection, schedule: Q01DX009 (ip), vehicle: Klucel (hydroxypropylcellulose) (HPC).
Setting [11] is: dose: 60.0 mg/kg/injection, schedule: Q01DX005 (ip), vehicle: saline with Tween-80.
Where [12] appears, read: dose: 50.0 mg/kg/injection, schedule: Q01DX005 (ip), vehicle: Klucel (hydroxypropylcellulose) (HPC).
[13] abbreviates: dose: 50.0 mg/kg/injection, schedule: Q01DX005 (ip), vehicle: saline with Tween-80.
Where [14] appears, read: dose: 100.0 mg/kg/injection, schedule: Q01DX005 (ip), vehicle: saline with Tween-80.
Where [15] appears, read: dose: 200.0 mg/kg/injection, schedule: Q01DX005 (ip), vehicle: saline with Tween-80.
Setting [16] is: dose: 100.0 mg/kg/injection, schedule: Q01DX009 (ip), vehicle: saline with Tween-80.
The mark [17] stands for this setting: dose: 25.0 mg/kg/injection, schedule: Q01DX009 (ip), vehicle: saline with Tween-80.
Where [18] appears, read: dose: 50.0 mg/kg/injection, schedule: Q01DX009 (ip), vehicle: saline with Tween-80.

Several values for one entry are separate records, joined by “and”; a condition that tells them apart may be missing. Equal entries are not always repeated. Inconclusive results and toxic doses are left out.

Take `[I][Hg][CH2]C1Cc2ccccc2O1` (stereo unspecified): the T/C reads like this: under setting [1], 90 % of control; under setting [2], 90 % of control; under setting [3], 99 % of control; under setting [4], 96 % of control.
On to `C/C=C/C(=O)Sc1ccccc1`, for which the T/C runs as follows: (dose: 12.5 mg/kg/injection, schedule: Q01DX009 (ip), vehicle: Klucel (hydroxypropylcellulose) (HPC)) 108 % of control; under setting [5], 105 % of control; under setting [6], 101 % of control and 105 % of control.
Take `Cc1cc(C)n(-c2cc(N3CCOCC3)ncn2)n1`: the T/C under setting [4] is 96 % of control, the T/C under setting [7] was 95 % of control and the T/C under setting [8] is 98 % of control.
As for `COC(=O)C1=C(C(=O)OC)[C]([Hg][CH3])(C(=O)c2ccccc2)N=N1` (stereo unspecified), the T/C runs as follows: under setting [1], 93 % of control; under setting [2], 103 % of control; under setting [3], 90 % of control.
With `Oc1ccc(C2(c3ccc(O)cc3)CC3CC2C2CCCC32)cc1` (stereo unspecified), the T/C is 98 % of control under setting [6], 97 % of control under setting [9] and 97 % of control under setting [10].
For `C=CCOC(=O)C1CC2OC2CC1C` (stereo unspecified), the T/C (dose: 75.0 mg/kg/injection, schedule: Q01DX009 (ip), vehicle: saline with Tween-80) is 96 % of control; the T/C (dose: 150.0 mg/kg/injection, schedule: Q01DX009 (ip), vehicle: saline with Tween-80) was 103 % of control; the T/C (dose: 300.0 mg/kg/injection, schedule: Q01DX009 (ip), vehicle: saline with Tween-80) is 97 % of control.
As to `Oc1ccc(Cl)cc1CN1CCN(Cc2cc(Cl)ccc2O)CC1`, the T/C was 100 % of control (dose: 15.0 mg/kg/injection, schedule: Q01DX005 (ip), vehicle: saline with Tween-80); 97 % of control (dose: 30.0 mg/kg/injection, schedule: Q01DX005 (ip), vehicle: saline with Tween-80); 89 % of control under setting [11].
For `Cn1c2ncccc2c(=O)c2c(O)cc3c(c21)C=CC(C)(C)O3`, the T/C reads like this: (dose: 12.5 mg/kg/injection, schedule: Q01DX005 (ip), vehicle: Klucel (hydroxypropylcellulose) (HPC)) 100 % of control; (dose: 25.0 mg/kg/injection, schedule: Q01DX005 (ip), vehicle: Klucel (hydroxypropylcellulose) (HPC)) 102 % of control; under setting [12], 101 % of control and 93 % of control.
Regarding `C[C@@H]1C[C@H](C)OC(CCl)O1` (stereo partly specified), the T/C is 100 % of control (dose: 60.0 mg/kg/injection, schedule: Q01DX005 (ip), vehicle: saline); 102 % of control (dose: 120.0 mg/kg/injection, schedule: Q01DX005 (ip), vehicle: saline); 98 % of control (dose: 240.0 mg/kg/injection, schedule: Q01DX005 (ip), vehicle: saline).
With `CCOC(=O)c1ccc2cc(C)c3ccc(N)nc3n2c1=O`, the T/C was 93 % of control (dose: 25.0 mg/kg/injection, schedule: Q01DX005 (ip), vehicle: saline with Tween-80); 98 % of control under setting [13]; 92 % of control and 93 % of control under setting [14]; 88 % of control under setting [15].
Regarding `CCOC(=O)c1cccc2c([N+](=O)[O-])c([N+](=O)[O-])cc(C(=O)OCC)c12`, the T/C runs as follows: (dose: 100.0 mg/kg/injection, schedule: Q01DX001 (ip), vehicle: saline with Tween-80) 99 % of control; (dose: 200.0 mg/kg/injection, schedule: Q01DX001 (ip), vehicle: saline with Tween-80) 102 % of control; (dose: 400.0 mg/kg/injection, schedule: Q01DX001 (ip), vehicle: saline with Tween-80) 99 % of control.
As for `COc1ccc2c(c1)CCC(c1nc3ccc(C)cc3[nH]c1=O)C2=O` (stereo unspecified), the T/C reads like this: under setting [11], 103 % of control; (dose: 120.0 mg/kg/injection, schedule: Q01DX005 (ip), vehicle: saline with Tween-80) 108 % of control.
As to `CNC(=O)O/N=C(\SC)C(=O)N(C)C`, the T/C was 102 % of control (dose: 0.87 mg/kg/injection, schedule: Q01DX005 (ip), vehicle: saline) and 100 % of control (dose: 1.75 mg/kg/injection, schedule: Q01DX005 (ip), vehicle: saline).
As to `O=C1OC2C=CC=CN2C(=O)C1Cc1ccccc1` (stereo unspecified), the T/C (dose: 60.0 mg/kg/injection, schedule: Q01DX005 (ip), vehicle: Klucel (hydroxypropylcellulose) (HPC)) is 105 % of control; the T/C (dose: 120.0 mg/kg/injection, schedule: Q01DX005 (ip), vehicle: Klucel (hydroxypropylcellulose) (HPC)) is 102 % of control; the T/C (dose: 240.0 mg/kg/injection, schedule: Q01DX005 (ip), vehicle: Klucel (hydroxypropylcellulose) (HPC)) is 100 % of control.
Turning to `ClC(Cl)(Cl)C(N1CCN(c2ccccc2)CC1)N1CCN(c2ccccc2)CC1`, the T/C under setting [16] is 101 % of control; the T/C (dose: 200.0 mg/kg/injection, schedule: Q01DX009 (ip), vehicle: saline with Tween-80) is 101 % of control; the T/C (dose: 400.0 mg/kg/injection, schedule: Q01DX009 (ip), vehicle: saline with Tween-80) was 106 % of control; the T/C (dose: 600.0 mg/kg/injection, schedule: Q01DX009 (ip), vehicle: saline with Tween-80) was 100 % of control.
In the case of `COc1cc2c(NCCCCCCO[N+](=O)[O-])ncnc2c(OC)c1OC`, the T/C runs as follows: under setting [12], 100 % of control; (dose: 100.0 mg/kg/injection, schedule: Q01DX005 (ip), vehicle: Klucel (hydroxypropylcellulose) (HPC)) 103 % of control; (dose: 200.0 mg/kg/injection, schedule: Q01DX005 (ip), vehicle: Klucel (hydroxypropylcellulose) (HPC)) 100 % of control.
Regarding `Cc1ncc(CSC(=N)N)n1Cc1ccccc1`, the T/C (dose: 8.5 mg/kg/injection, schedule: Q01DX009 (ip), vehicle: saline) was 115 % of control.
For `O=P(=O)OP(=O)=O.[O]=[W](=[O])=[O]`, the T/C is, setting by setting: under setting [17], 100 % of control; under setting [18], 100 % of control; under setting [16], 95 % of control.
For the molecule `COc1cc2cc[n+]3c4ccc([N+](=O)[O-])cc4ccc3c2cc1OC`, under setting [15], the T/C is 89 % of control.
As to `CN1CCc2c3n(c4ccccc24)C(=O)CCC31` (stereo unspecified), the T/C is 120 % of control (dose: 6.25 mg/kg/injection, schedule: Q01DX009 (ip), vehicle: saline with Tween-80); 120 % of control (dose: 12.5 mg/kg/injection, schedule: Q01DX009 (ip), vehicle: saline with Tween-80); 120 % of control under setting [17].
Take `COc1ccc(Cl)cc1NC(=O)Nc1nccs1`: the T/C was 90 % of control under setting [5], 90 % of control under setting [6], 90 % of control under setting [9] and 88 % of control under setting [10].
As to `O=c1[nH]c(=O)n(C2OC(CO)C(O)C2O)c(NNc2ccccc2)c1NNc1ccccc1` (stereo unspecified), the T/C runs as follows: under setting [13], 97 % of control; under setting [14], 111 % of control; under setting [15], 117 % of control.
In the case of `CN(C)c1ccc(/C=C(\C#N)C(N)=S)cc1`, the T/C by setting is: under setting [4], 100 % of control; under setting [7], 100 % of control; under setting [8], 106 % of control.
For the molecule `Cc1cccc(C)c1NC1c2ccccc2C=Cc2ccccc21`, the T/C is, setting by setting: under setting [18], 87 % of control; under setting [16], 89 % of control.
For the molecule `CN(C)C1C(O)C2Oc3c(cc(O)c4c3C(=O)c3cc5c(c(O)c3C4=O)C(OCCBr)CC(C)(O)C5)C(C)(O2)C1O` (stereo unspecified), the T/C by setting is: (dose: 2.0 mg/kg/injection, schedule: Q01DX009 (ip), vehicle: other) 150 % of control; (dose: 4.0 mg/kg/injection, schedule: Q01DX009 (ip), vehicle: other) 154 % of control; (dose: 8.0 mg/kg/injection, schedule: Q01DX009 (ip), vehicle: other) 157 % of control; (dose: 16.0 mg/kg/injection, schedule: Q01DX009 (ip), vehicle: other) 159 % of control.
Turning to `CCC(/C=C/C1OC(=O)C=CC1C)=C\C(C)C/C=C/C(C)=C/C(C)C(=O)C(C)C(O)C(C)C/C(C)=C/C(=O)O` (stereo unspecified), the T/C is 118 % of control (dose: 12.5 micrograms/kg/injection, schedule: Q01DX005 (ip), vehicle: saline + alcohol) and 92 % of control (dose: 100.0 micrograms/kg/injection, schedule: Q01DX005 (ip), vehicle: saline + alcohol).
Consider `C(CCC1CO1)CC1CO1` (stereo unspecified), for which the T/C (dose: 100.0 mg/kg/injection, schedule: Q04DX002 (ip), vehicle: Klucel (hydroxypropylcellulose) (HPC)) is 122 % of control.

The values above are taken from PubChem BioAssay AID330 (DTP/NCI, 2004).
